Results on ten substances are retold here after PMC7435865, “Antinociceptive and Cytotoxic Activity of Opioid Peptides with Hydrazone and Hydrazide Moieties at the C-Terminus” (Molecules, 2020).

One experiment deals with MOR. Conditions: cited from earlier work.
In a further experiment the target is DOR. Set-up: method as in PMID 17927164. The note with it: cited from earlier work.
Experiment [1] concerns MeW155 human melanoma cells. Kind of experiment: melanoma cell number in culture after incubation with compound. Conditions: 50 µM, 96 h incubation. Type of experiment: cell-based. As for the experimental part:
The determination was performed by counting the cells of the MeW155 cell line after incubating them with 50 µM of the tested compounds.
The cells were plated in 24-well plates (5000 cells per well) and incubated for 24 h in Eagle’s medium containing 10% fetal bovine serum and 1% solution of penicillin and streptomycin. […] Control cells were treated with 1% DMSO only. After 96 h of incubation, the cell suspension was first lysed in lysis buffer (ReagentA, ChemoMetec A/S) and then stabilized in stabilization buffer (ReagentB, ChemoMetec A/S). The number of […] was quantified in a propidium iodide cassette with the use of a NucleoCounter® NC-100™ (ChemoMetec A/S) cell counter. The tests were performed in triplicate. The results were normalized so that the values obtained for the control were 100%.

For a further experiment, the target named is T1, µ opioid receptor (MOR) (Rattus norvegicus, UniProt P33535).
T1 construct: Membrane fractions of rat brain homogenate were incubated at 25 °C for 60 min in the presence of radioligands; from tissue; host or cells: rat brain (membrane fractions of homogenate)
Set-up: method as in PMID 28105278. Conditions: rat brain homogenate; previously reported ref 33; read-out: MOR IC50 ± SEM; cited from earlier work.

The next experiment concerns male Wistar rats. Set-up: method as in PMID 28105278. Conditions: already published ref 33, cited from earlier work.

Several values for one entry are separate records, joined by “and”; a condition that tells them apart may be missing. Identical values can stand only once. Like-named read-outs stand apart in the source and are kept apart here. [ ]: non-standard residue; d: D form.

T1 sequence (P33535 whole entry): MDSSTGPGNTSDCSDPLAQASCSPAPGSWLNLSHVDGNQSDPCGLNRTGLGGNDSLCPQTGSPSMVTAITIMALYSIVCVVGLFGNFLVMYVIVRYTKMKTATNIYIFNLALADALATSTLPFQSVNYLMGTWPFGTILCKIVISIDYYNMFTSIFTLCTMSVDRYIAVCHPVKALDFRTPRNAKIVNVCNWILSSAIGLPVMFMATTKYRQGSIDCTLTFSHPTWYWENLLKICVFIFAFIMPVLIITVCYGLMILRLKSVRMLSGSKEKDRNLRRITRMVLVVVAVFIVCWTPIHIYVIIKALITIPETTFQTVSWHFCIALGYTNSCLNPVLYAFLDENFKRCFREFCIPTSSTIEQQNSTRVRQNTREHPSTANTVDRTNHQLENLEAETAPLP

“H2N-Tyr-D-Ala-Gly-Phe-NH-NH←Phe←Gly←D-Ala←Tyr-NH2 [biphalin]”: the IC50 (in general, the concentration at which inhibition is half-maximal) with MOR was 1.4 nM.
H-Tyr-D-Ala-Gly-Phe-NH2: the Ki (commonly the dissociation constant of the complex between target and ligand, obtained from inhibition or displacement) on MOR (read-out: MOR Ki) was 2.8 nM; on DOR, 300 nM.
Regarding “H-Tyr-D-Ala-Gly-Phe-NH-N=CH-3,5-(CF3)2Ph [1a]”, in experiment [1], the “effect on number of melanoma cells (in words)” value is reported as “significantly decrease the number of melanoma cells” and the “number of MeW155 cells, % of the control value” was 39 ± 4 % of the control. In the experiment with µ opioid receptor (MOR), the IC50 was 12.7 ± 0.75 nM. Also, the “antinociceptive effect, % of maximal possible effect” value with male Wistar rats (0.5 nmol/rat i.t., 15 min after injection) was ~ 80 % MPE and 80 ± 9 % MPE. Moreover, the “area under the time course curve (AUC) of analgesic effect” value in the experiment on male Wistar rats (0.5 nmol/rat i.t.) is 4483 ± 592 units. Also, the “ED50 ± SEM” value in the experiment with male Wistar rats (tail flick, i.t.) was 0.18 ± 0.05 nmol/rat.
Turning to H-Tyr-D-Ala-Gly-Phe-NH-NH2, the IC50 in the experiment with MOR is 4.7 nM.
Regarding H-Tyr-D-Ala-Trp-Cyn, the half-maximal inhibitory concentration (IC50) in the experiment with MOR is 77.6 nM.
H-Tyr-Pro-Phe-NH2: the Ki on MOR (read-out: MOR inhibition constant Ki) is 46.3 nM.
As to H-Tyr-[dA]-Trp-OH, the IC50 in the experiment with MOR was 977 nM.
As for H-Y[dA]FF-NH2 [TAPP], the concentration for half-maximal inhibition (IC50) in the experiment with MOR (determined in the authors' laboratory) was 5.1 nM.
On to H-Y[dA]GW-NH2, for which the “times weaker as a MOR binder than the [Phe4]-variant” value in the experiment with MOR (versus H-Tyr-D-Ala-Gly-Phe-NH2) was “about 2 times”.
With Tyr-Pro-Phe-Phe-NH2 [endomorphin-2], the half-maximal inhibitory concentration (IC50) in the experiment on MOR was 3.9 nM.
